Results as given in patent US20230242641A1, “SLAMF7 CARS” (JULIUS-MAXIMILIANS-UNIVERSITÄT WÜRZBURG, priority 2020, published 2023).
Where two headings read alike, the source gives them in different places. Values belong to the molecule of their own block, whether it stands above or below them.

Assays:
MM.1S cells = details: cited from earlier work
SLAMF7 = details: cited from earlier work
[1] = test system: CD34+ hematopoietic stem cells; details: cited from earlier work
multiple myeloma = details: cited from earlier work
CAR-T cell-induced CRS = details: 45 pediatric and adult patients; 31 patients; 95% CI: 53%-82%; cited from earlier work
[2] = molecular target: T1, mouse SLAMF7 molecule linked to a Twin-Strep Tag (mice, UniProt Q8BHK6 23-224, limits assumed); assay: flow cytometry: LV-RP cells incubated with Twin-Strep tagged SLAMF7 of different species, stained with anti-Strep Tag antibody (FIG. 37)
T1 construct: also called SLAMF7 of mice; not shown: Twin-Strep Tag
From the text: SLAMF7 molecules linked to a Twin-Strep Tag were stained by an anti-Strep Tag antibody.

Molecule: Nc1cccc2c1CN(C1CCC(=O)NC1=O)C2=O (stereo not drawn) [Lenalidomide]
eradication of MM.1S (MM.1S cells; after 72 hours of treatment): about 40%

Molecule: Elotuzumab: SLAMF7-specific monoclonal antibody huLuc63
species cross-reactivity (SLAMF7): lack of species cross-reactivity
eradication of MM.1S (MM.1S cells; after 72 hours of treatment): less than 70%
binding to CD34+ hematopoietic stem cells [1]: No binding
interim overall survival rate (multiple myeloma; after three years): 60%
rate of progression-free survival (multiple myeloma; at one year after beginning of treatment, elotuzumab group vs control group (only Lenalidomid and dexmethason)): 68%
infection rate compared to the control group (multiple myeloma; in vivo): No significant increase in the infection rate
lymphocyte reduction after the initial infusion (multiple myeloma; in vivo): 77%

Molecule: tocilizumab: recombinant humanized monoclonal antibody that blocks IL-6 from binding to its receptor
patients achieving a response (resolution of CRS within 14 days of the first dose) (CAR-T cell-induced CRS): 69%

Molecule: N[C@@H](Cc1ccc(N(CCCl)CCCl)cc1)C(=O)O [Melphalan]
eradication of MM.1S (MM.1S cells; after 48 hours of treatment): less than 40%

Molecule: CC(C)C[C@H](NC(=O)[C@H](Cc1ccccc1)NC(=O)c1cnccn1)B(O)O [Bortezomib]
eradication of MM.1S (MM.1S cells; after 72 hours of treatment): less than 30%

binding result [2]: no binding
B1: SLAMF7 binding chimeric antigen receptor (CAR) polypeptide, expressed on human T cells (other)
chain: EVQLVESGGGLVQPGGSLRLSCAASGFDFSRYWMSWVRQAPGKGLEWIGEINPDSSTINYAPSLKDKFIISRDNAKNSLYLQMNSLRAEDTAVYYCARPDGNYWYFDVWGQGTLVTVSSGGGGSGGGGSGGGGSDIQMTQSPSSLSASVGDRVTITCKASQDVGIAVAWYQQKPGKVPKLLIYWASTRHTGVPDRFSGSGSGTDFTLTISSLQPEDVATYYCQQYSSYPYTFGQGTKVEIKESKYGPPCPPCPAPPVAGPSVFLFPPKPKDTLMISRTPEVTCVVVDVSQEDPEVQFNWYVDGVEVHNAKTKPREEQFQSTYRVVSVLTVLHQDWLNGKEYKCKVSNKGLPSSIEKTISKAKGQPREPQVYTLPPSQEEMTKNQVSLTCLVKGFYPSDIAVEWESNGQPENNYKTTPPVLDSDGSFFLYSRLTVDKSRWQEGNVFSCSVMHEALHNHYTQKSLSLSLGKMFWVLVVVGGVLACYSLLVTVAFIIFWVRSKRSRGGHSDYMNMTPRRPGPTRKHYQPYAPPRDFAAYRSRVKFSRSADAPAYQQGQNQLYNELNLGRREEYDVLDKRRGRDPEMGGKPRRKNPQEGLYNELQKDKMAEAYSEIGMKGERRRGKGHDGLYQGLSTATKDTYDALHMQALPPR
notes: also called SLAMF7 CAR; SLAMF7-CAR
